# PubChem BioAssay (NCI)
#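 Tested at 5 concentrations; 48 h exposure; 96-well plates; endpoints linearly interpolated, else capped at highest concentration. TGI marks complete inhibition of growth.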
# Experiments:
# Assay in all cases: growth of human tumour cells (NCI), 48 h
# [1] = system: A549 NSCLC
# [2] = system: HOP-92 NSCLC
# [3] = system: RXF 393 renal
# [4] = system: NCI-H23 lung
# [5] = system: SNB-19 CNS
# [6] = system: SF-295 CNS
# [7] = system: HCT-116 colon
# [8] = system: IGROV1 ovarian
# [9] = system: DLD-1 colon
# [10] = system: OVCAR-4 ovarian
# [11] = system: HL-60(TB) leukemia
# [12] = system: SK-OV-3 ovarian
# [13] = system: RPMI-8226 leukemia
# [14] = system: SN12C renal
# [15] = system: UO-31 renal
# [16] = system: DMS 114 small cell lung
# [17] = system: KM20L2 colon
# [18] = system: OVCAR-8 ovarian
# [19] = system: RXF-631 renal
# [20] = system: SW-620 colon
# [21] = system: OVCAR-3 ovarian
# [22] = system: UACC-62 melanoma
# [23] = system: SNB-75 CNS
# [24] = system: NCI-H460 lung
# [25] = system: HCC-2998 colon
# [26] = system: U251 CNS
# [27] = system: K-562 leukemia
# [28] = system: SNB-78 CNS
# [29] = system: MOLT-4 leukemia
# [30] = system: SF-539 CNS
# [31] = system: 786-0 renal
# [32] = system: ACHN renal
# [33] = system: XF 498 CNS
# [34] = system: UACC-257 melanoma
# [35] = system: A498 renal
# [36] = system: M19-MEL melanoma
# [37] = system: SK-MEL-2 melanoma
# [38] = system: KM12 colon
# [39] = system: HOP-18 NSCLC
# [40] = system: EKVX NSCLC
# [41] = system: LXFL 529 NSCLC
# [42] = system: SK-MEL-28 melanoma
# [43] = system: HT29 colon
# [44] = system: M14 melanoma
# [45] = system: HCT-15 colon
# [46] = system: SR leukemia
# [47] = system: COLO 205 colon
# [48] = system: DMS 273 small cell lung
# [49] = system: HOP-62 NSCLC
# [50] = system: CAKI-1 renal
# [51] = system: CCRF-CEM leukemia
# [52] = system: OVCAR-5 ovarian
# [53] = system: TK-10 renal
# [54] = system: SK-MEL-5 melanoma
# [55] = system: NCI-H226 lung
# [56] = system: NCI-H522 lung
# [57] = system: LOX IMVI melanoma
# [58] = system: MALME-3M melanoma
# [59] = system: SF-268 CNS
smiles,measurement,setting,value
COc1c(CC(=O)c2ccccc2)c2ccccc2n1C(C)=O,TGI,[1],> 100 µM
same,TGI,[2],> 100 µM
same,TGI,[3],> 100 µM
same,TGI,[4],> 100 µM
same,TGI,[5],> 100 µM
same,TGI,[6],> 100 µM
same,TGI,[7],> 100 µM
same,TGI,[8],> 100 µM
same,TGI,[9],> 100 µM
same,TGI,[10],> 100 µM
same,TGI,[11],> 100 µM
same,TGI,[12],> 100 µM
same,TGI,[13],> 100 µM
same,TGI,[14],> 100 µM
same,TGI,[15],> 100 µM
same,TGI,[16],> 100 µM
same,TGI,[17],> 100 µM
same,TGI,[18],> 100 µM
same,TGI,[19],> 100 µM
same,TGI,[20],> 100 µM
same,TGI,[21],> 100 µM
same,TGI,[22],> 100 µM
same,TGI,[23],> 100 µM
same,TGI,[24],> 100 µM
same,TGI,[25],> 100 µM
same,TGI,[26],> 100 µM
same,TGI,[27],> 100 µM
same,TGI,[28],> 100 µM
same,TGI,[29],> 100 µM
same,TGI,[30],> 100 µM
same,TGI,[31],> 100 µM
same,TGI,[32],> 100 µM
same,TGI,[33],> 100 µM
same,TGI,[34],> 100 µM
same,TGI,[35],> 100 µM
same,TGI,[36],> 100 µM
same,TGI,[37],> 100 µM
same,TGI,[38],> 100 µM
same,TGI,[39],> 100 µM
same,TGI,[40],> 100 µM
same,TGI,[41],> 100 µM
same,TGI,[42],> 100 µM
same,TGI,[43],> 100 µM
same,TGI,[44],> 100 µM
same,TGI,[45],> 100 µM
same,TGI,[46],> 100 µM
same,TGI,[47],> 100 µM
same,TGI,[48],> 100 µM
same,TGI,[49],> 100 µM
same,TGI,[50],> 100 µM
same,TGI,[51],> 100 µM
C/C(=N\N(C)C)C(CN1CCCCC1)C(c1ccccc1)c1c(O)c2ccccc2oc1=O (centres undefined),TGI,[1],> 100 µM
same,TGI,[3],> 100 µM
same,TGI,[4],> 100 µM
same,TGI,[5],> 100 µM
same,TGI,[52],> 100 µM
same,TGI,[53],> 100 µM
same,TGI,[6],> 100 µM
same,TGI,[7],> 100 µM
same,TGI,[8],> 100 µM
same,TGI,[9],> 100 µM
same,TGI,[54],> 100 µM
same,TGI,[10],> 100 µM
same,TGI,[11],> 100 µM
same,TGI,[12],> 100 µM
same,TGI,[13],> 100 µM
same,TGI,[14],> 100 µM
same,TGI,[15],> 100 µM
same,TGI,[16],> 100 µM
same,TGI,[17],> 100 µM
same,TGI,[18],> 100 µM
same,TGI,[19],> 100 µM
same,TGI,[20],> 100 µM
same,TGI,[21],> 100 µM
same,TGI,[22],> 100 µM
same,TGI,[23],> 100 µM
same,TGI,[24],> 100 µM
same,TGI,[26],> 100 µM
same,TGI,[27],> 100 µM
same,TGI,[28],> 100 µM
same,TGI,[55],> 100 µM
same,TGI,[29],> 100 µM
same,TGI,[30],> 100 µM
same,TGI,[31],> 100 µM
same,TGI,[32],> 100 µM
same,TGI,[33],> 100 µM
same,TGI,[34],> 100 µM
same,TGI,[56],> 100 µM
same,TGI,[35],> 100 µM
same,TGI,[36],> 100 µM
same,TGI,[37],> 100 µM
same,TGI,[38],> 100 µM
same,TGI,[39],> 100 µM
same,TGI,[40],> 100 µM
same,TGI,[41],> 100 µM
same,TGI,[42],> 100 µM
same,TGI,[43],> 100 µM
same,TGI,[44],> 100 µM
same,TGI,[45],> 100 µM
same,TGI,[46],> 100 µM
same,TGI,[57],> 100 µM
same,TGI,[47],> 100 µM
same,TGI,[48],> 100 µM
same,TGI,[49],> 100 µM
same,TGI,[58],> 100 µM
same,TGI,[50],> 100 µM
same,TGI,[59],> 100 µM
same,TGI,[51],> 100 µM
O=c1nc2sc3ccc4ccccc4c3n2nc1-c1ccccc1,TGI,[1],94.5 µM
same,TGI,[2],50 µM
same,TGI,[3],70.6 µM
same,TGI,[4],87.5 µM
same,TGI,[5],> 100 µM
same,TGI,[52],> 100 µM
same,TGI,[53],50.4 µM
same,TGI,[6],33.3 µM
same,TGI,[7],51.2 µM
same,TGI,[8],82.6 µM
same,TGI,[9],> 100 µM
same,TGI,[54],> 100 µM
same,TGI,[10],29.3 µM
same,TGI,[11],> 100 µM
same,TGI,[12],95.1 µM
same,TGI,[14],93.8 µM
same,TGI,[15],51.4 µM
same,TGI,[16],> 100 µM
same,TGI,[17],> 100 µM
same,TGI,[18],42.2 µM
same,TGI,[19],> 100 µM
same,TGI,[20],> 100 µM
same,TGI,[21],40.4 µM
same,TGI,[22],> 100 µM
same,TGI,[23],46.9 µM
same,TGI,[24],59.2 µM
same,TGI,[25],> 100 µM
same,TGI,[26],38.2 µM
same,TGI,[27],> 100 µM
same,TGI,[28],> 100 µM
same,TGI,[55],> 100 µM
same,TGI,[29],> 100 µM
same,TGI,[30],34.2 µM
same,TGI,[31],38 µM
same,TGI,[32],87.4 µM
same,TGI,[33],70.2 µM
same,TGI,[34],> 100 µM
same,TGI,[36],> 100 µM
same,TGI,[37],> 100 µM
same,TGI,[38],> 100 µM
same,TGI,[39],93.7 µM
same,TGI,[40],> 100 µM
same,TGI,[41],> 100 µM
same,TGI,[42],> 100 µM
same,TGI,[43],> 100 µM
same,TGI,[44],> 100 µM
same,TGI,[45],> 100 µM
same,TGI,[46],> 100 µM
same,TGI,[57],28.4 µM
same,TGI,[47],> 100 µM
same,TGI,[48],> 100 µM
same,TGI,[49],66.6 µM
same,TGI,[58],41.1 µM
same,TGI,[50],73.9 µM
same,TGI,[59],> 100 µM
same,TGI,[51],> 100 µM
